# Source: US20080213810A1, “Screening Method for Hiv Rt Inhibitors” (priority 2005, published 2008)
# Target: HIV RT (Human immunodeficiency virus type 1 group M subtype B, UniProt P04585)
# Experiment: Enzyme kinetics studies (1/v versus 1/[dTTP])
# Assay type: biochemical
# Conditions: 40-3 μM dTTP, 2-0 μM compound 1, poly(rA)oligo(dT); lines cross at the Y-axis intercept
# Method: The enzyme kinetics studies were carried out using a protocol involving a 4×5 matrix of varying substrate and inhibitor concentrations over ranges of 40-3 μM of dTTP and 2-0 μM of compound 1.
# The reaction mixtures (50 μl) further contained 50 mM Tris.HCl (pH 7.8), 5 mM dithiothreitol, […], 500 μM EDTA, 150 mM KCl, 5 mM MgCl2, 0.15 mM of the template/primer poly(rA)oligo(dT) and 0.06% Triton X-100. The reaction mixtures were incubated at 37° C. for 15 min, at which time 100 μl of calf thymus DNA ([…]), 2 ml of Na4P207 (0.1 M in 1 M HCl), and 2 ml of trichloroacetic acid (10% v/v) were added. The solutions were kept on ice for 30 min, after which the acid-insoluble material was washed and analyzed for radioactivity. When the reciprocal of the reaction velocity (1/v) is plotted against the reciprocal of the substrate concentration (1/[dTTP]) in the presence of different concentrations of compound 1, the graph (See FIG. 1) is obtained.
# Since all the lines cross at the intercept with the Y-axis it is clear that this compound has a competitive mode of HIV RT inhibition.
compound,measurement,value
Cn1c2ccccc2c2c1cc(C#N)c(=O)n2-c1ccc([N+](=O)[O-])cc1 [Compound 1],mode of HIV RT inhibition,competitive
